The source of these data is patent publication US20140309296A1, “BUDIODARONE FORMULATIONS” (Armetheon, Inc., priority 2013, published 2014).

Counter-ions that a name gives are not always drawn.

Data set [1] has as its system sodium, potassium, and calcium ion channels. The settings on record: in vivo; cited from earlier work.
For data set [2] the following is noted: 30 ml of 0.9% benzyl alcohol in saline, estimated from animal studies; cited from earlier work.
A short description of data set [3]: Budiodarone concentration attainable in hyperconcentrated solutions (Examples 16-18). It counts as physicochemical. The procedure:
The benzyl alcohol/budiodarone tartrate solution is viscous and therefore direct measurement of the budiodarone concentration is difficult. A better way to measure budiodarone concentration in the solution of benzyl alcohol and budiodarone oil or in a hyperconcentrated solution is by using an indirect method. In this example, the volume of the benzyl alcohol/budiodarone mixture was measured, which in turn allowed for the calculation of an accurate budiodarone concentration.
In each of five vials of accurately known volume, budiodarone tartrate (250 mg) and benzyl alcohol (91 μl) were mixed in order to make a 3/1 mixture (mol/mol). Then the solution was mixed thoroughly in order to make a clear solution. This was aided with the help of warming to 50° C. for 3 minutes in order to reduce the viscosity of the mixture. The weight of the vial containing the 3:1 mixture of benzyl alcohol/budiodarone was then recorded. Vial number 1 was filled with silicon oil of density d=0.964 and weighed again. The difference in weight provided the weight of the silicon oil added. This, divided by the density of the silicon oil provided the volume of silicon oil necessary to fill the vial. The difference with the known volume of the vial represents the volume of the benzyl alcohol/budiodarone mixture. To Vial numbers 2, 3, 4, and 5 was added 50, 100, 200, and 400 μl of water, respectively. The contents of the vials were then thoroughly mixed in order to get hyperconcentrated solutions of different volumes and different budiodarone concentrations. The volumes of these hyperconcentrations using silicon oil were measured as described above.
The same experiment as Example 16 was replicated, using mixtures of 5/1 ratio (250 mg of budiodarone tartrate and 152 μl of benzyl alcohol) and various volumes of water added. Using the same procedure as Example 16, a maximum calculated budiodarone concentration of 737 mg/ml and a maximum benzyl alcohol concentration of 45% (v/v) were found.
Similarly, the experiment in Example 16 was replicated, using a 1/1 mixture (250 mg of budiodarone tartrate and 30 μl of benzyl alcohol). A maximum calculated budiodarone concentration of 1,136 mg/ml and a maximum benzyl alcohol concentration of 13.6% (v/v) were found.

Data set [4] can be described thus: Solubility of budiodarone tartrate in water (Example 2). It counts as physicochemical. The procedure:
The aqueous solubility of budiodarone tartrate was measured in pure distilled water. Budiodarone tartrate (250 mg) was suspended in distilled water (10 ml) and the suspension was vortexed on a VWR Genie 2 vortexer at maximum speed for 3×10 sec duration. The suspension was then stirred for 96 hours at room temperature, protected from light. After 96 hours, the suspension was vortexed again and a 1 ml aliquot was centrifuged at 13,000 rpm for 10 minutes to precipitate all insoluble material. A 40 μl aliquot of the clear supernatant was diluted with 960 μl of methanol (25-fold dilution) and was analyzed by HPLC using Conditions 3.
The amount of budiodarone in solution is found to be 7.04 mg/ml. This figure is the solubility of budiodarone tartrate in water.

Consider `CCN(CC)CCOc1c(I)cc(C(=O)c2c(CC(=O)O)oc3ccccc23)cc1I` [ATI-2000], for which the “electrophysiological activity of the major metabolite” value in data set [1] was “electrophysiologically inactive”.

For `OCc1ccccc1` [benzyl alcohol], in data set [2], the “amount estimated to be safe by rapid intravenous infusion” value is listed as “approximately 4.5 mg/kg”. The “maximum benzyl alcohol concentration” value in data set [3] (1/1 mixture) is recorded as 13.6 % (v/v); in data set [3] (3:1 molar ratio of benzyl alcohol/budiodarone) it was 32.4 % (v/v); in data set [3] (5/1 ratio), 45 % (v/v).

What is called solubility is the dissolved amount per volume that the medium holds. In the case of `CC[C@H](C)OC(=O)Cc1oc2ccccc2c1C(=O)c1cc(I)c(OCCN(CC)CC)c(I)c1` [budiodarone tartrate, (1S)-1-methylpropyl 2-(3-{4-[2-(diethylamino)ethoxy]-3,5-diiodobenzoyl}benzofuran-2-yl)acetate, hydrogen (2R,3R)-2,3-dihydroxybutanedioate], the “degradation products in the clear supernatant” value in data set [4] (after 96 hours stirring in distilled water at room temperature, HPLC) was “No significant amount of degradation products were detected”. In addition, the solubility at 96 h in data set [4] (distilled water, water, thermodynamic from solid, water, room temperature, read-out: aqueous solubility of budiodarone tartrate) is 7040 µg/mL. Also, the “aqueous solubility of budiodarone tartrate” value in data set [4] (water, room temperature) is on record as “about 7 mg/ml”.
